pIC50: −log10 of the molar value.
Test system: SK-OV-3 multi-cell spheroids, viability
Test: Anticancer human tumor SK-OV-3 cell line growth inhibition [IpAb];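 on viability, T/C: viability read after seven days of drug exposure; percent of DMSO vehicle control luminescence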
Details: for pIC50: curve of first compound; for viability, T/C: stronger effect = lower value
Outline: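 Multi-cell spheroids of 60% tumour cells, 25% HUVEC and 15% MSC in ultra-low-attachment U-bottom wells, treated with agents combined with ipatasertib or abemaciclib. Half-log ranges top out near clinical Cmax, or 10 microM when Cmax is unknown.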

Question: What does the source list for `CC(=O)c1c(C)c2cnc(Nc3ccc(N4CCNCC4)cn3)nc2n(C2CCCC2)c1=O` + CCN1CCN(Cc2ccc(Nc3ncc(F)c(-c4cc(F)c5nc(C)n(C(C)C)c5c4)n3)nc2)CC1?
Answer: pIC50 (second compound 0.01 µM): 6.56; pIC50 (second compound 0.0316 µM): 7.20; pIC50 (second compound 0.1 µM): 8.05; pIC50 (second compound 0.316 µM): 8.58; pIC50 (second compound 1 µM): > 9.02; viability, T/C (second compound 0.01 µM, first compound 0.000949 µM): 79.7%; viability, T/C (second compound 0.01 µM, first compound 0.003 µM): 77.4%; viability, T/C (second compound 0.01 µM, first compound 0.00949 µM): 66%; viability, T/C (second compound 0.01 µM, first compound 0.03 µM): 57.5%; viability, T/C (second compound 0.01 µM, first compound 0.0949 µM): 53.3%; viability, T/C (second compound 0.01 µM, first compound 0.3 µM): 48.9%; viability, T/C (second compound 0.0316 µM, first compound 0.000949 µM): 68%; viability, T/C (second compound 0.0316 µM, first compound 0.003 µM): 62.5%; viability, T/C (second compound 0.0316 µM, first compound 0.00949 µM): 56.5%; viability, T/C (second compound 0.0316 µM, first compound 0.03 µM): 50.9%; viability, T/C (second compound 0.0316 µM, first compound 0.0949 µM): 49.1%; viability, T/C (second compound 0.0316 µM, first compound 0.3 µM): 46.7%; viability, T/C (second compound 0.1 µM, first compound 0.000949 µM): 57.7%; viability, T/C (second compound 0.1 µM, first compound 0.003 µM): 52.3%; viability, T/C (second compound 0.1 µM, first compound 0.00949 µM): 51.8%; viability, T/C (second compound 0.1 µM, first compound 0.03 µM): 46.9%; viability, T/C (second compound 0.1 µM, first compound 0.0949 µM): 40.5%; viability, T/C (second compound 0.1 µM, first compound 0.3 µM): 42%; viability, T/C (second compound 0.316 µM, first compound 0.000949 µM): 51.5%; viability, T/C (second compound 0.316 µM, first compound 0.003 µM): 49%; viability, T/C (second compound 0.316 µM, first compound 0.00949 µM): 51%; viability, T/C (second compound 0.316 µM, first compound 0.03 µM): 45.6%; viability, T/C (second compound 0.316 µM, first compound 0.0949 µM): 45.5%; viability, T/C (second compound 0.316 µM, first compound 0.3 µM): 46.8%; viability, T/C (second compound 1 µM, first compound 0.000949 µM): 41.4%; viability, T/C (second compound 1 µM, first compound 0.003 µM): 43.1%; viability, T/C (second compound 1 µM, first compound 0.00949 µM): 42.3%; viability, T/C (second compound 1 µM, first compound 0.03 µM): 35.9%; viability, T/C (second compound 1 µM, first compound 0.0949 µM): 39.2%; viability, T/C (second compound 1 µM, first compound 0.3 µM): 42.4%
